This note sets out measurements from ChEMBL document CHEMBL4038308, “Lipophosphonoxins II: Design, Synthesis, and Properties of Novel Broad Spectrum Antibacterial Agents” (J Med Chem, 2017).

The subject of data set [1] is Staphylococcus aureus. The experiment in a line: Bactericidal activity against Staphylococcus aureus CCM 4223 assessed as reduction in bacterial count at 6.25 mg/L after 6 to 24 hrs by time kill assay. It counts as functional.
Data set [2] in a line: Critical micellar concentration of the compound by capillary electrophoresis method.
The subject of data set [3] is Salmonella enteritidis. The experiment in a line: Antibacterial activity against Salmonella enteritidis S2-25 after 24 hrs by microdilution method. Particulars: Salmonella enterica, S2-25, 24 h. Type of data set: functional, Salmonella enterica subsp. enterica serovar Enteritidis. For orientation: Broth dilution looks for growth in wells or tubes with falling amounts of substance.

The subject of data set [4] is BJ. The experiment in a line: Cytotoxicity against human BJ cells assessed as reduction in cell viability after 48 hrs by ATPlite reagent based assay.
Data set [5] relates to Escherichia coli. The experiment in a line: Bactericidal activity against Escherichia coli CCM 3954 assessed as reduction in bacterial count at 6.25 to 12.5 mg/L after 24 hrs by time kill assay. It counts as functional.
The subject of data set [6] is Staphylococcus aureus. Nature of the data set: Antibacterial activity against Staphylococcus aureus CCM 4223 after 24 hrs by microdilution method. It counts as functional. The note with it: CCM 4223, 24 h.
Data set [7] concerns J774.A1. The experiment in a line: Cytotoxicity against mouse J774A.1 cells assessed as damage to cell membrane by measuring propidium iodide intake at 5 mg/L by spectrofluorometric analysis. It counts as cell-based.
The subject of data set [8] is Streptococcus agalactiae. The experiment in a line: Antibacterial activity against Streptococcus agalactiae after 24 hrs by microdilution method. It counts as functional.
For data set [9], the system named is Acinetobacter baumannii. The experiment in a line: Antibacterial activity against Acinetobacter baumannii A3-08 after 24 hrs by microdilution method. Type of data set: functional. Particulars: A3-08, 24 h.
Data set [10] has as its system Mus musculus. The experiment in a line: Toxicity in ICR mouse assessed as body weight loss up to 2000 mg/kg, po administered as single dose measured for 2 weeks. Particulars: in vivo, 336 h. It counts as organism-based.
For data set [11], the system named is TERT-RPE1. The experiment in a line: Cytotoxicity against human RPE1 cells assessed as disruption of cell membrane integrity after 4 hrs by CytoTox-ONE-based assay. Particulars: tert-rpe1, 4 h.
Data set [12] has as its system Lipid bilayer. Nature of the data set: Binding affinity to DOPG large unilamellar vesicle assessed as carboxyfluorescein leakage at 10 mg/L after 20 secs by fluorescence-based assay relative to control.
Data set [13] deals with Pseudomonas aeruginosa. Nature of the data set: Antibacterial activity against Pseudomonas aeruginosa 16575 after 24 hrs by microdilution method. The note with it: Pseudomonas aeruginosa, 16575, 24 h. It counts as functional.
The test system of data set [14] is Staphylococcus haemolyticus. The experiment in a line: Antibacterial activity against fluoroquinolne-resistant Staphylococcus haemolyticus 16568 after 24 hrs by microdilution method. The note with it: Staphylococcus haemolyticus, 16568, 24 h. It counts as functional.
Data set [15] deals with Bacillus subtilis. Nature of the data set: Antibacterial activity against Bacillus subtilis after 24 hrs by microdilution method. Type of data set: functional.

≈ marks a conversion by molar mass, not a printed value. Calls of active or inactive are those of the source.

One may read the MIC as the smallest concentration in the dilution series that meets the test's criterion for growth inhibition. Lower therefore signals greater potency. For the compound `CCCCCCCCCCCCCCOP(=O)(CCN(CCCN)CCCN)OC[C@H]1O[C@@H](n2ccc(=O)[nH]c2=O)[C@H](O)[C@@H]1O` (stereo not given in full), the outcome in [1], in data set [5] and in [12] was Active. This compound returned a CMC in data set [2] of 4.55 mM. Also, the MIC was 3.13 µg/mL (≈ 4.73 µM) in data set [3]; 6.25 µg/mL (≈ 9.44 µM) in [6]; 3.13 µg/mL (≈ 4.73 µM) in [8]; 12.5 µg/mL (≈ 18.9 µM) in [9]; 1.56 µg/mL (≈ 2.36 µM) in data set [13]; 1.56 µg/mL (≈ 2.36 µM) in data set [14]. For the same compound, the minimal inhibitory concentration (MIC) in data set [15] came to 0.78 µg/mL (≈ 1.18 µM). Moreover, the Activity is recorded as 30.7 mg/L in data set [4], “Non-Toxic” in [7], “Non-Toxic” in data set [10] and “Non-Toxic” in [11].
